# Measured values published in patent US9695155B2, “Herbicidal substituted pyrimidinyloxy benzene compounds” (E. I. DU PONT DE NEMOURS AND COMPANY, priority 2013, dated 2017).
# Experiments:
# [1] = tested on: chamomile; assay: Test D preemergence; type: in vivo, Matricaria inodora
# Outline: (§1)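 Seeds sown in silt loam soil got preemergence sprays; plants in peat/vermiculite potting medium were sprayed postemergence at 2–18 cm (1- to 4-leaf stage). Chemicals were formulated in a non-phytotoxic solvent mixture with surfactant. After 7 to 21 days in a controlled environment, injury was rated visually versus controls, 0 (no effect) to 100 (complete control).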
# [2] = tested on: spring barley; assay: Test D preemergence; type: in vivo, Hordeum vulgare
# Outline: as §1
# [3] = tested on: winter barley; assay: Test D preemergence; type: in vivo, Hordeum vulgare
# Outline: as §1
# [4] = tested on: spring wheat; assay: Test D preemergence; type: in vivo, Triticum aestivum
# Outline: as §1
# [5] = tested on: winter wheat; assay: Test D preemergence; type: in vivo, Triticum aestivum
# Outline: as §1
# [6] = tested on: wild oat; assay: Test D preemergence; type: in vivo, Avena fatua
# Outline: as §1
# [7] = tested on: deadnettle; assay: Test D postemergence; type: in vivo, Lamium amplexicaule
# Outline: as §1
# [8] = tested on: spring wheat; assay: Test D postemergence; type: in vivo, Triticum aestivum
# Outline: as §1
# [9] = tested on: winter wheat; assay: Test D postemergence; type: in vivo, Triticum aestivum
# Outline: as §1
# [10] = tested on: wild buckwheat; assay: Test D postemergence; type: in vivo, Polygonum convolvulus; conditions: Postemergence, scale 0 to 100 (0 no effect, 100 complete control)
# Outline: as §1
# [11] = 31 g ai/ha, scale 0 (no effect) to 100 (complete control)
# [12] = 62 g ai/ha, scale 0 to 100 (0 no effect, 100 complete control)
# [13] = 125 g ai/ha, scale 0 to 100 (0 no effect, 100 complete control)
# [14] = 250 g ai/ha, scale 0 to 100 (0 no effect, 100 complete control)
smiles,measurement,setting,value
"FC(F)(F)c1cn(-c2ccccc2Oc2ncc(Cl)cn2)nn1 [Compound 166, 5-chloro-2-[2-[4-(trifluoromethyl)-1H-1,2,3-triazol-1-yl]phenoxy]pyrimidine]",pest or weed control at 16 g/ha,"[1]; Tripleurospermum inodorum, pre-emergence, 16 g ai/ha, scale 0 (no effect) to 100 (complete control), read-out: Plant response rating, Chamomile",5%
same,pest or weed control at 31 g/ha,"[1]; Tripleurospermum inodorum, pre-emergence, 31 g ai/ha, scale 0-100, read-out: Plant response rating, Chamomile",25%
same,pest or weed control at 62 g/ha,"[1]; Tripleurospermum inodorum, pre-emergence, 62 g ai/ha, scale 0-100, read-out: Plant response rating, Chamomile",50%
same,pest or weed control at 125 g/ha,"[1]; Tripleurospermum inodorum, pre-emergence, 125 g ai/ha, scale 0-100, read-out: Plant response rating, Chamomile",55%
same,plant injury at 16 g/ha,"[2]; Hordeum vulgare, pre-emergence, 16 g ai/ha, scale 0 (no effect) to 100 (complete control), read-out: Plant response rating, Barley, Spring",0%
same,plant injury at 31 g/ha,"[2]; Hordeum vulgare, pre-emergence, 31 g ai/ha, scale 0-100, read-out: Plant response rating, Barley, Spring",0%
same,plant injury at 62 g/ha,"[2]; Hordeum vulgare, pre-emergence, 62 g ai/ha, scale 0-100, read-out: Plant response rating, Barley, Spring",30%
same,plant injury at 125 g/ha,"[2]; Hordeum vulgare, pre-emergence, 125 g ai/ha, scale 0-100, read-out: Plant response rating, Barley, Spring",60%
same,plant injury at 16 g/ha,"[3]; Hordeum vulgare, pre-emergence, 16 g ai/ha, scale 0 (no effect) to 100 (complete control), read-out: Plant response rating, Barley, Winter",0%
same,plant injury at 31 g/ha,"[3]; Hordeum vulgare, pre-emergence, 31 g ai/ha, scale 0-100, read-out: Plant response rating, Barley, Winter",0%
same,plant injury at 62 g/ha,"[3]; Hordeum vulgare, pre-emergence, 62 g ai/ha, scale 0-100, read-out: Plant response rating, Barley, Winter",35%
same,plant injury at 125 g/ha,"[3]; Hordeum vulgare, pre-emergence, 125 g ai/ha, scale 0-100, read-out: Plant response rating, Barley, Winter",50%
same,plant injury at 16 g/ha,"[4]; Triticum aestivum, pre-emergence, 16 g ai/ha, scale 0 (no effect) to 100 (complete control), read-out: Plant response rating, Wheat, Spring",0%
same,plant injury at 31 g/ha,"[4]; Triticum aestivum, pre-emergence, 31 g ai/ha, scale 0 (no effect) to 100 (complete control), read-out: Plant response rating, Wheat, Spring",0%
same,plant injury at 62 g/ha,"[4]; Triticum aestivum, pre-emergence, 62 g ai/ha, scale 0-100, read-out: Plant response rating, Wheat, Spring",10%
same,plant injury at 125 g/ha,"[4]; Triticum aestivum, pre-emergence, 125 g ai/ha, scale 0-100, read-out: Plant response rating, Wheat, Spring",60%
same,plant injury at 16 g/ha,"[5]; Triticum aestivum, pre-emergence, 16 g ai/ha, scale 0 (no effect) to 100 (complete control), read-out: Plant response rating, Wheat, Winter",0%
same,plant injury at 31 g/ha,"[5]; Triticum aestivum, pre-emergence, 31 g ai/ha, scale 0 (no effect) to 100 (complete control), read-out: Plant response rating, Wheat, Winter",0%
same,plant injury at 62 g/ha,"[5]; Triticum aestivum, pre-emergence, 62 g ai/ha, scale 0-100, read-out: Plant response rating, Wheat, Winter",0%
same,plant injury at 125 g/ha,"[5]; Triticum aestivum, pre-emergence, 125 g ai/ha, scale 0-100, read-out: Plant response rating, Wheat, Winter",25%
same,pest or weed control at 16 g/ha,"[6]; Avena fatua, pre-emergence, 16 g ai/ha, scale 0 (no effect) to 100 (complete control), read-out: Plant response rating, Oat, Wild",0%
same,pest or weed control at 31 g/ha,"[6]; Avena fatua, pre-emergence, 31 g ai/ha, scale 0-100, read-out: Plant response rating, Oat, Wild",30%
same,pest or weed control at 62 g/ha,"[6]; Avena fatua, pre-emergence, 62 g ai/ha, scale 0-100, read-out: Plant response rating, Oat, Wild",55%
same,pest or weed control at 125 g/ha,"[6]; Avena fatua, pre-emergence, 125 g ai/ha, scale 0-100, read-out: Plant response rating, Oat, Wild",75%
same,pest or weed control at 16 g/ha,"[7]; Lamium amplexicaule, post-emergence, 16 g ai/ha, scale 0-100, read-out: Plant response rating, Deadnettle",40%
same,pest or weed control at 31 g/ha,"[7]; Lamium amplexicaule, post-emergence, 31 g ai/ha, scale 0 to 100 (0 no effect, 100 complete control), read-out: Plant response rating, Deadnettle",60%
same,pest or weed control at 62 g/ha,"[7]; Lamium amplexicaule, post-emergence, 62 g ai/ha, scale 0 to 100 (0 no effect, 100 complete control), read-out: Plant response rating, Deadnettle",65%
same,pest or weed control at 125 g/ha,"[7]; Lamium amplexicaule, post-emergence, 125 g ai/ha, scale 0 to 100 (0 no effect, 100 complete control), read-out: Plant response rating, Deadnettle",70%
same,plant injury at 16 g/ha,"[8]; Triticum aestivum, post-emergence, 16 g ai/ha, scale 0-100, read-out: Plant response rating, Wheat, Spring",5%
same,plant injury at 31 g/ha,"[8]; Triticum aestivum, post-emergence, 31 g ai/ha, scale 0 to 100 (0 no effect, 100 complete control), read-out: Plant response rating, Wheat, Spring",10%
same,plant injury at 62 g/ha,"[8]; Triticum aestivum, post-emergence, 62 g ai/ha, scale 0 to 100 (0 no effect, 100 complete control), read-out: Plant response rating, Wheat, Spring",25%
same,plant injury at 125 g/ha,"[8]; Triticum aestivum, post-emergence, 125 g ai/ha, scale 0 to 100 (0 no effect, 100 complete control), read-out: Plant response rating, Wheat, Spring",35%
same,plant injury at 16 g/ha,"[9]; Triticum aestivum, post-emergence, 16 g ai/ha, scale 0-100, read-out: Plant response rating, Wheat, Winter",5%
same,plant injury at 31 g/ha,"[9]; Triticum aestivum, post-emergence, 31 g ai/ha, scale 0 to 100 (0 no effect, 100 complete control), read-out: Plant response rating, Wheat, Winter",15%
same,plant injury at 62 g/ha,"[9]; Triticum aestivum, post-emergence, 62 g ai/ha, scale 0 to 100 (0 no effect, 100 complete control), read-out: Plant response rating, Wheat, Winter",30%
same,plant injury at 125 g/ha,"[9]; Triticum aestivum, post-emergence, 125 g ai/ha, scale 0 to 100 (0 no effect, 100 complete control), read-out: Plant response rating, Wheat, Winter",40%
same,pest or weed control at 16 g/ha,"[10]; Fallopia convolvulus, post-emergence, 16 g ai/ha, read-out: Plant response rating, Buckwheat, Wild",70%
same,pest or weed control at 31 g/ha,"[10]; Fallopia convolvulus, post-emergence, 31 g ai/ha, read-out: Plant response rating, Buckwheat, Wild",95%
same,pest or weed control at 62 g/ha,"[10]; Fallopia convolvulus, post-emergence, 62 g ai/ha, read-out: Plant response rating, Buckwheat, Wild",95%
same,pest or weed control at 125 g/ha,"[10]; Fallopia convolvulus, post-emergence, 125 g ai/ha, read-out: Plant response rating, Buckwheat, Wild",100%
N#Cc1cccc(Oc2ncc(Cl)cn2)c1-n1cc(-n2ccc(C(F)(F)F)n2)cn1 [Compound 284],"Plant response rating, Chamomile",[1]; [11],100
same,"Plant response rating, Chamomile","[1]; 62 g ai/ha, scale 0-100",100
same,"Plant response rating, Chamomile","[1]; 125 g ai/ha, scale 0-100",100
same,"Plant response rating, Chamomile","[1]; 250 g ai/ha, scale 0-100",100
same,"Plant response rating, Barley, Spring",[2]; [11],10
same,"Plant response rating, Barley, Spring","[2]; 62 g ai/ha, scale 0-100",15
same,"Plant response rating, Barley, Spring","[2]; 125 g ai/ha, scale 0-100",25
same,"Plant response rating, Barley, Spring","[2]; 250 g ai/ha, scale 0-100",35
same,"Plant response rating, Barley, Winter",[3]; [11],0
same,"Plant response rating, Barley, Winter","[3]; 62 g ai/ha, scale 0-100",0
same,"Plant response rating, Barley, Winter","[3]; 125 g ai/ha, scale 0-100",15
same,"Plant response rating, Barley, Winter","[3]; 250 g ai/ha, scale 0-100",20
same,"Plant response rating, Wheat, Spring",[4]; [11],10
same,"Plant response rating, Wheat, Spring","[4]; 125 g ai/ha, scale 0-100",20
same,"Plant response rating, Wheat, Spring","[4]; 250 g ai/ha, scale 0-100",30
same,"Plant response rating, Wheat, Winter",[5]; [11],15
same,"Plant response rating, Wheat, Winter","[5]; 125 g ai/ha, scale 0-100",20
same,"Plant response rating, Wheat, Winter","[5]; 250 g ai/ha, scale 0-100",25
same,"Plant response rating, Oat, Wild",[6]; [11],0
same,"Plant response rating, Oat, Wild","[6]; 62 g ai/ha, scale 0-100",0
same,"Plant response rating, Oat, Wild","[6]; 125 g ai/ha, scale 0-100",20
same,"Plant response rating, Oat, Wild","[6]; 250 g ai/ha, scale 0-100",50
same,"Plant response rating, Deadnettle","[7]; 31 g ai/ha, scale 0-100",70
same,"Plant response rating, Deadnettle",[7]; [12],100
same,"Plant response rating, Deadnettle",[7]; [13],100
same,"Plant response rating, Deadnettle",[7]; [14],100
same,"Plant response rating, Wheat, Spring","[8]; 31 g ai/ha, scale 0-100",15
same,"Plant response rating, Wheat, Spring",[8]; [12],25
same,"Plant response rating, Wheat, Spring",[8]; [13],30
same,"Plant response rating, Wheat, Spring",[8]; [14],35
same,"Plant response rating, Wheat, Winter","[9]; 31 g ai/ha, scale 0-100",10
same,"Plant response rating, Wheat, Winter",[9]; [12],25
same,"Plant response rating, Wheat, Winter",[9]; [13],20
same,"Plant response rating, Wheat, Winter",[9]; [14],25
same,"Plant response rating, Buckwheat, Wild",[10]; 62 g ai/ha,100
same,"Plant response rating, Buckwheat, Wild",[10]; 31 g ai/ha,100
same,"Plant response rating, Buckwheat, Wild",[10]; 125 g ai/ha,100
same,"Plant response rating, Buckwheat, Wild",[10]; 250 g ai/ha,100
